The subject of test [1] is Helicobacter pylori. The experiment in a line: Inhibition zone experiment (Oxford cup method), Example 6. Particulars: 100 μL sample. In kind it is cell-based. The method, then:
In this example, an inhibitory effect of the Lactobacillus plantarum in Example 3 on the growth of Helicobacter pylori was verified. Steps are described below. • (1) Helicobacter pylori at −80° C. was taken out, coated on a Columbia blood agar medium containing 5% sheep blood (v/v) for activation and culture and cultured in a microaerobic environment for 48 h at 37° C. • (2) The Lactobacillus plantarum was inoculated in an MRS liquid medium and cultured for 18 h at 37° C. for activation two consecutive times to obtain an activation solution. The activation solution was inoculated in an MRS liquid medium at an inoculum volume of 2% (v/v) and cultured for 18 h at 37° C. to obtain a bacterial solution. The bacterial solution was centrifuged at 8000 g for 10 min, and supernatant was taken and passed through a 0.22 μm sterile filtration membrane to obtain supernatant of the Lactobacillus plantarum. […] Effects of inhibiting the growth of Helicobacter pylori at 48 h and 72 h by the Lactobacillus plantarum were determined through the Oxford cup method.

Test [2] relates to Helicobacter pylori. The experiment in a line: Inhibition zone experiment (Oxford cup method) of health care product, Example 9. It is filed as cell-based. The settings on record: 100 μL sample. The method, then: The health care product for inhibiting Helicobacter pylori infection was prepared into a suspension (a density of Lactobacillus plantarum Lp05 was 10^9 CFU/mL) with water, 100 μL suspension was taken and coated onto a surface of a punctured Colombian blood agar medium (a volume of the medium was 20 mL) containing 5% sheep blood without an antibiotic, and any one of the following groups of liquids was added separately to form different experimental groups: 100 μL suspension of the health care product to be tested, 100 μL positive control (a metronidazole solution having a mass concentration of 0.025%), 100 μL negative control (a PBS buffer) and a blank control (100 μL MRS liquid medium). Effects of inhibiting the growth of Helicobacter pylori at 48 h and 72 h were determined through an Oxford cup method.

Molecules are shown by their SMILES.

In the case of `Cc1ncc([N+](=O)[O-])n1CCO` [Positive control, metronidazole], the entries for the “Diameter of Inhibition Zone at 48 h (mm)” value with Helicobacter pylori [1] (48 h of culture) and in the test with Helicobacter pylori [2] (48 h of culture) were 11.2 ± 2.3 mm and 9.3 ± 2.5 mm, respectively. The “Diameter of Inhibition Zone at 72 h (mm)” value in the test with Helicobacter pylori [1] (72 h of culture) is 12.4 ± 3.1 mm; in the test with Helicobacter pylori [2] (72 h of culture) it was 9.8 ± 2.5 mm.

(Values after patent publication US12648975B2, “Lactobacillus plantarum against Helicobacter pylori infection, and use thereof” (WECARE PROBIOTICS CO., LTD., priority 2021, dated 2026).)
